Measurements published in patent US20090216158A1, “ULTRASOUND AND TISSUE REPAIR” (priority 2008, published 2009).

Key:
human β1 integrin = molecular target: T1, human β1 integrin (Homo sapiens, UniProt P05556); experiment: Flow cytometry of integrin activity with 12G10 antibody on K562 cells; format: cell-based; conditions: 1 mM Mn^2+ rather than 1 mM Ca^2+, 0.5 mM Mg^2+
T1 construct: endogenous in cells; host or cells: K562 human lymphocytes
Protocol: For analysis of integrin activity by flow cytometry, K562 suspension cells were stimulated with ultrasound for 20 minutes, followed by centrifugation and re-suspension in ice cold media. Cells were stained with primary antibody (12G10), diluted to 10 μg/ml in Dulbecco's PBS containing calcium and magnesium (Lonza), 0.02% (w/v) sodium azide on ice for 1 hour. The cells were washed with PBS, 1% (v/v) fetal bovine serum, followed by 10 μg/ml secondary antibody diluted in PBS, 10% (v/v) fetal bovine serum for 30 minutes. For manganese stimulation all antibodies and wash buffers were supplemented with 1 mM MnCl2. Cells were then fixed with 2% (w/v) paraformaldehyde, and analysed on a Dako Cyan flow cytometer, using an excitation wavelength of 488 nm. A 530/30 nm bandpass filter was used to detect the emissions.

Rac1 = experiment: GTPase activation assay: Rac1 effector pull-down with quantitative Western blotting; format: cell-based, mouse; conditions: 200 nM BIM, 30 min before and throughout stimulation; MEFs prespread on 50K
Protocol: (§1) For immunofluorescence, 13-mm diameter glass coverslips, placed into 6-well plates, were derivatized for 30 minutes with 1 mM sulpho-m-maleimidobenzoyl-N-hydrosuccinimide ester (Perbio). For spreading on mab13 monoclonal antibody, coverslips were pre-coated with 10 μg/ml goat anti-Rat IgG FC fragment (Jackson, Stratech Scientific). For biochemical assays, 6-well tissue culture-treated plastic plates (Corning BV) were coated directly with ligand. Coverslips or dishes were coated for 2 hours at room temperature with 10 μg/ml 50K, H/0, PLL or mab13 in Dulbecco's PBS containing calcium and magnesium (Lonza), and blocked with 10 mg/ml heat-denatured BSA for 30 minutes at room temperature (Humphries et al., 1986). Equivalent ligand-coating between glass and plastic was tested by ELISA using the anti-fibronectin mAb 333 (Bass et al., 2007a). To prevent de novo synthesis of ECM and other syndecan-4 ligands, cells were treated with 25 μg/ml cycloheximide (Sigma) for 2 hours prior to detachment (Couchman et al., 1983) and were then detached with 0.5 mg/ml trypsin. […] Images were compiled and analyzed using ImageJ software. The total area of adhesion complexes per cell was calculated by recording the area of fluorescence intensity above an empirically determined threshold, following rolling ball background subtraction. […]

MEFs = experiment: Adhesion complex (focal adhesion) formation assay, vinculin/actin immunofluorescence; format: cell-based, mouse; conditions: 200 nM BIM; MEFs prespread on 50K
Protocol: as §1

Row | Compound | staining of K562 lymphocytes with 12G10 (β1 integrin activation epitope) (human β1 integrin) | effect on ultrasound-induced Rac1 activation (Rac1) | effect on focal adhesion formation in response to H/0 (MEFs)
1 | [Cl][Mn][Cl] [Mn^2+, MnCl2] | enhanced | – | –
2 | CN(C)CCCn1cc(C2=C(c3c[nH]c4ccccc34)C(=O)NC2=O)c2ccccc21 [BIM, bisindolylmaleimide I] | – | did not prevent ultrasound-induced Rac1 activation | blocked focal adhesion formation in response to H/0
